Our source for the IC50 values is patent publication US12398118B2, “Rho-associated protein kinase inhibitor, pharmaceutical composition comprising same, and use thereof” (BEIJING TIDE PHARMACEUTICAL CO., LTD., priority 2018, dated 2025).

The structures appear in SMILES notation.

In one experiment the target is ROCK1 (Homo sapiens (Human), UniProt Q13464). Briefly: ROCK1 kinase IC50, biological test method similar to ROCK2 assay. The format is biochemical. As to the method: (§1) The kinase IC50 was determined by a commercialized CISBIO kinase detection kit, HTRF KinEASE-STK S2 kit (62ST2PEC). ROCK2 (01-119) employed in the reaction was purchased from Carna Biosciences.
ROCK1, sequence (Q13464 whole entry, species assumed): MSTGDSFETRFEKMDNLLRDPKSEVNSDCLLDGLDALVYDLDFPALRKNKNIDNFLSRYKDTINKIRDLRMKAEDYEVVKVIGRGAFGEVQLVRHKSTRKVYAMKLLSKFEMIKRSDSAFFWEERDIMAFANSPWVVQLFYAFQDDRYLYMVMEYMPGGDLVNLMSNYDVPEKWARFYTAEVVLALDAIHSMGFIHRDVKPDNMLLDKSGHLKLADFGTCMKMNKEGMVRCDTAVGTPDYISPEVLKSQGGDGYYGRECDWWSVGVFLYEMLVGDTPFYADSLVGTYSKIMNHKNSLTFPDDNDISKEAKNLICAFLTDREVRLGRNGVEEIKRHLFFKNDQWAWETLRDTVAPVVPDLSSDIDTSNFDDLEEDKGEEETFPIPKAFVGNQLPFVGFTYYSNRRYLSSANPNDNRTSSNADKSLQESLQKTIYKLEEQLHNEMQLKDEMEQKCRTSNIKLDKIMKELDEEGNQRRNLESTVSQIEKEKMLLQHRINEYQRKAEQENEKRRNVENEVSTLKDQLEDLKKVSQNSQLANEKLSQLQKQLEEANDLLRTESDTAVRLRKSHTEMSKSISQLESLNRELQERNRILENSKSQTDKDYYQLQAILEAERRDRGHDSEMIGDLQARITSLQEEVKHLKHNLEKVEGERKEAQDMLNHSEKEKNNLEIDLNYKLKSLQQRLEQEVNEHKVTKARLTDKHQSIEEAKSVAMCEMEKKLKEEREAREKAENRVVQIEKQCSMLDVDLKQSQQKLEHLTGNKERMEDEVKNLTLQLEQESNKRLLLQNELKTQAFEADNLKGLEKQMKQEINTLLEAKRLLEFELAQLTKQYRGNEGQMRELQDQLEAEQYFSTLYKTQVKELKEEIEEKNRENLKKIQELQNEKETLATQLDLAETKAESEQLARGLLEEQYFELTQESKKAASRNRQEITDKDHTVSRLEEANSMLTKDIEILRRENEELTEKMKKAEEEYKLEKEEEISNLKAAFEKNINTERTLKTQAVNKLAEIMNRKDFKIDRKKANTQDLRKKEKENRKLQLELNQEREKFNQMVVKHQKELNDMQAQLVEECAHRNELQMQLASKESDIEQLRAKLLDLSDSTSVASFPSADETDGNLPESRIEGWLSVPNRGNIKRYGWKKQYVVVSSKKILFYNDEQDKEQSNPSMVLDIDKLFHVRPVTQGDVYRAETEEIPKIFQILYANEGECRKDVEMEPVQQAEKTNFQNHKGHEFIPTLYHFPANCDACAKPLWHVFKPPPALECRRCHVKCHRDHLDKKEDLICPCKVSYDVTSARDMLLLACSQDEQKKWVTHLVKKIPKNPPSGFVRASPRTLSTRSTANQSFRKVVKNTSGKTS
(§2) Before the assay, the following working solutions as needed were formulated with corresponding reagents according to the instruction of the kinase detection kit: 1×kinase buffer, 5×STK-S2 substrate working solution (1.5 μM) and 5×ATP working solution (1.5 μM), 5×ROCK2 kinase working solution, 4×Streptavidin-XL665 working solution, and 4×STK-Ab-Cryptate 2 detection solution. Then the assay was performed according to the following procedure.
(§3) A solution of a compound at a concentration of 10000 nM was prepared with the 1×kinase buffer containing 2.5% DMSO. Gradient dilution of the solution of the compound was performed with the kinase buffer containing DMSO, so as to obtain solutions of a test compound at 9 different concentrations. In addition to wells of test compounds, a positive well (containing all the reagents except the compound) and a negative well (containing all the reagents except the test compound and kinase) were set. Except for the control wells (positive and negative wells), a solution of a test compound (4 μL) was added to each of the reaction wells, and a solution of 2.5% DMSO was added to the control wells. Then the substrate (2 μM, i.e., 2 μL 5×STK-S2 substrate working solution) was added to each of the reaction wells. The 5×ROCK2 kinase working solution (2 μL, containing 1.4 ng ROCK2 kinase) was added to each of the reaction wells except for the negative well, the volume of which was made up with the 1×kinase buffer (2 μL). The 5×ATP working solution (2 μL) was added to each of the reaction wells, and the mixtures were incubated at room temperature for 2 hours. After the kinase reaction was complete, the 4×Streptavidin-XL665 working solution was added to each of the reaction wells, the solutions were mixed, followed by immediate addition of the 4×STK-Ab-Cryptate 2 detection solution (5 μL), and the mixtures were incubated at room temperature for 1 hour. The fluorescence signal was read on ENVISION (Perkinelmer) (excitation wavelength: 320 inn, and emission wavelength: 665 nm and 615 nm). The inhibitory rate in each well was calculated based on the fluorescence intensity value: ER (Emission Ratio)_(fluorescence intensity at 665 nm/fluorescence intensity at 615 nm); inhibitory rate=(ERpositive−ERtest compound)/(ERpositive−ERnegative)*100%. Curves were plotted and fitted to obtain the median inhibitory concentration (IC50) of each teat compound with the PRISM 5.0 software. According to a biological test method similar to the above, the IC50 values of the compounds on ROCK1 were also tested.

For another experiment, the target named is ROCK2 (Homo sapiens, UniProt O75116). Briefly: ROCK2 kinase IC50, HTRF KinEASE-STK S2 kit. It is filed as biochemical. To be noted: 2 hours at room temperature. As to the method: as §1, §2, §3
ROCK2, sequence (O75116 whole entry, looked up): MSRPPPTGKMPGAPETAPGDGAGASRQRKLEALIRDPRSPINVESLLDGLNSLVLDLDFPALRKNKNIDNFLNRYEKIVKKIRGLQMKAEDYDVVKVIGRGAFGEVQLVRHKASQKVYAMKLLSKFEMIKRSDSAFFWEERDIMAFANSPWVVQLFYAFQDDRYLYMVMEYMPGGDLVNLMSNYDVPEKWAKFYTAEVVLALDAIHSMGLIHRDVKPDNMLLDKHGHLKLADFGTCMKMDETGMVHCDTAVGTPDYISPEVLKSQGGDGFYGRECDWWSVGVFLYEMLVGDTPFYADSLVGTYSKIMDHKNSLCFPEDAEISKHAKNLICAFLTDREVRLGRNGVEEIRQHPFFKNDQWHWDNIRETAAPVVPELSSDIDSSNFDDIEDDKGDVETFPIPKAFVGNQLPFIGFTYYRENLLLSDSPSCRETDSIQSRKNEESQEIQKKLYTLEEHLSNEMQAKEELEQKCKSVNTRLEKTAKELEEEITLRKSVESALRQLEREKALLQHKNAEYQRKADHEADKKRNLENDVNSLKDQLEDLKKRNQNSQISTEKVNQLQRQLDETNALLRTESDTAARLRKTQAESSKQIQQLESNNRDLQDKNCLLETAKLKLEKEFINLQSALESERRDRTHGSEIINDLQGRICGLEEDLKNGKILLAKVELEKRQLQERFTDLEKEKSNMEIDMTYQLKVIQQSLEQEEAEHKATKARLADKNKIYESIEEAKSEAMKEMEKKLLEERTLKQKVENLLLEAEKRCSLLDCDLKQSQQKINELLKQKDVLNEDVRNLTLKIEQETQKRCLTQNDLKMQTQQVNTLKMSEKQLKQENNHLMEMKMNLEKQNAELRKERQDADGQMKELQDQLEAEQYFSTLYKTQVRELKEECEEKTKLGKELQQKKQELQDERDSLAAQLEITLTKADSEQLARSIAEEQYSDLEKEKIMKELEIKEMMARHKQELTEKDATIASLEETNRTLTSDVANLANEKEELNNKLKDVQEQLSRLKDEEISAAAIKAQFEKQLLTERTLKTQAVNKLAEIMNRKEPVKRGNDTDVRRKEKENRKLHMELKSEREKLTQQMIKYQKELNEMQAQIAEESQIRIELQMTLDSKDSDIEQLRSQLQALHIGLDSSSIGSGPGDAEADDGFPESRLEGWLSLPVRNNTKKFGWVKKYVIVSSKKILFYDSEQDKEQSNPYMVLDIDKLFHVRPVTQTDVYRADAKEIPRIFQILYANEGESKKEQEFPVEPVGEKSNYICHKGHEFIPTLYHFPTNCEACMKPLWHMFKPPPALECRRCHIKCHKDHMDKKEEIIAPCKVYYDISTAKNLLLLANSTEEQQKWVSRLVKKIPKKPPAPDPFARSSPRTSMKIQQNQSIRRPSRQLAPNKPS
In general terms: In TR-FRET formats the signal depends on donor and acceptor labels being close together.

Consider `O=C(OC1CC(F)(F)C1)N1CCc2sc(-c3ncc(F)c(Nc4ccc5c(=O)[nH]ccc5c4)n3)cc2C1` [C27, 3,3-difluorocyclobutyl 2-(5-fluoro-4-((1-oxo-1,2-dihydroisoquinolin-6-yl)amino)pyrimidin-2-yl)-6,7-dihydrothieno[3,2-c]pyridine-5(4H)-carboxylate], for which the IC50 against ROCK1 was > 10000 nM; on ROCK2, 8 nM.

`O=C1NCc2cc(Nc3nc(-c4ccc5c(c4)CN(C(=O)OC4CC(F)(F)C4)C5)ncc3F)ccc21` [C30, 3,3-difluoro-cyclobutyl 5-(5-fluoro-4-((1-oxo-isoindolin-5-yl)amino)pyrimidin-2-yl) isoindoline-2-carboxylate]: the IC50 was > 10000 nM against ROCK1 and 216 nM at ROCK2.

Turning to `CC(CC(=O)N1Cc2ccc(-c3ncc(F)c(Nc4ccc5c(=O)[nH]ccc5c4)n3)cc2C1)C(F)(F)F` (centres unmarked) [C37, 6-((5-fluoro-2-(2-(4,4,4-trifluoro-3-methylbutanoyl)isoindolin-5-yl)pyrimidin-4-yl)amino)isoquinolin-1(2H)-one], the IC50 against ROCK1 is > 10000 nM; on ROCK2 it was 117 nM.

As for `Cn1c(C(=O)N2CC(F)(F)C2)cc2ccc(-c3nccc(Nc4ccc5c(N)nccc5c4)n3)cc21` [C38, (6-(4-((1-aminoisoquinolin-6-yl)amino)pyrimidin-2-yl)-1-methyl-1H-indol-2-yl)(3,3-difluoroazetidin-1-yl)methanone], the half-inhibitory concentration (IC50) was > 10000 nM on ROCK1 and 264 nM against ROCK2.

Turning to `CC(OC(=O)N1CCc2cc(-c3ncc(F)c(Nc4ccc5c(=O)[nH]ccc5c4)n3)ccc2C1)C(F)(F)F` (centres unmarked) [C39, 1,1,1-trifluoro-propan-2-yl 6-(5-fluoro-4-((1-oxo-1,2-dihydro-isoquinolin-6-yl)amino)pyrimidin-2-yl)-3,4-dihydro-isoquinolin-2(1H)-carboxylate], the concentration for half-maximal inhibition (IC50) was > 10000 nM against ROCK1 and 102 nM at ROCK2.

Consider `CC(OC(=O)N1CCc2cc(-c3nccc(Nc4ccc5c(c4)CCNC5=O)n3)ccc2C1)C(F)(F)F` (centres unmarked) [C40, 1,1,1-trifluoro-propan-2-yl 6-(4-((1-oxo-1,2,3,4-tetrahydro-isoquinolin-6-yl)amino)pyrimidin-2-yl)-3,4-dihydro-isoquinolin-2(1H)-carboxylate], for which the IC50 is > 10000 nM at ROCK1 and 270 nM against ROCK2.

Take `O=C1NCCc2cc(Nc3nc(-c4ccc5c(c4)CN(C(=O)N4CCC(F)(F)CC4)C5)ncc3F)ccc21` [C41, 6-((2-(2-(4,4-difluoro-piperidine-1-carbonyl)isoindolin-5-yl)-5-fluoro-pyrimidin-4-yl)amino)-3,4-dihydro-isoquinolin-1(2H)-one]: the figures for the IC50 at ROCK1 and against ROCK2 were > 10000 nM and 151 nM, respectively.

Turning to `CC(C)(C)OC(=O)N1CCc2sc(-c3ncc(F)c(Nc4ccc5c(c4)CCNC5=O)n3)cc2C1` [C42, tert-butyl 2-(5-fluoro-4-((1-oxo-1,2,3,4-tetrahydroisoquinolin-6-yl)amino)pyrimidin-2-yl)-6,7-dihydrothieno[3,2-c]pyridine-5(4H)-carboxylate], the IC50 on ROCK1 is > 10000 nM; against ROCK2, 31 nM.

Regarding `O=C(N1CCc2cc(-c3nccc(Nc4ccc5c(=O)[nH]ccc5c4)n3)ccc2C1)N1CC(F)(F)C1` [C44, 6-((2-(2-(3. 3-difluoro-azetidine-1-carbonyl)-1,2,3,4-tetrahydro-isoquinolin-6-yl)pyrimidin-4-yl)amino) isoquinolin-1(2H)-one], the half-inhibitory concentration (IC50) at ROCK1 was > 10000 nM; against ROCK2, 57 nM.

Consider `CC(OC(=O)N1CCc2sc(-c3ncc(F)c(Nc4ccc5c(=O)[nH]ccc5c4)n3)cc2C1)C(F)(F)F` (centres unmarked) [C46, 1,1,1-trifluoropropan-2-yl 2-(5-fluoro-4-((1-oxo-1,2-dihydroisoquinolin-6-yl)amino)pyrimidin-2-yl)-6,7-dihydrothieno[3,2-c]pyridine-5(4H)-carboxylate], for which the 50% inhibitory concentration (IC50) against ROCK1 was > 10000 nM; against ROCK2 it was 21 nM.

Take `CC(CC(=O)N1CCc2sc(-c3ncc(F)c(Nc4ccc5c(=O)[nH]ccc5c4)n3)cc2C1)C(F)(F)F` (centres unmarked) [C47, 6-((5-fluoro-2-(5-(4,4,4-trifluoro-3-methylbutanoyl)-4,5,6,7-tetrahydrothieno[3,2-c]pyridin-2-yl)pyrimidin-4-yl)amino)isoquinolin-1(2H)-one]: the IC50 on ROCK1 was > 10000 nM; at ROCK2 it was 15 nM.

As for `CC(CC(=O)N1Cc2ccc(-c3nccc(Nc4ccc5c(=O)[nH]ccc5c4)n3)cc2C1)C(F)(F)F` (centres unmarked) [C48, 6-((2-(2-(4,4,4-trifluoro-3-methyl-butanoyl)isoindolin-5-yl)pyrimidin-4-yl)amino) isoquinolin-1(2H)-one], the figures for the IC50 against ROCK1 and on ROCK2 were > 10000 nM and 13 nM, respectively.

Consider `CC(CC(=O)N1CCc2sc(-c3nccc(Nc4ccc5c(=O)[nH]ccc5c4)n3)cc2C1)C(F)(F)F` (centres unmarked) [C49, 6-((2-(5-(4,4,4-trifluoro-3-methylbutanoyl)-4,5,6,7-tetrahydrothieno[3,2-c]pyridin-2-yl)pyrimidin-4-yl)amino)isoquinolin-1(2H)-one], for which the figures for the IC50 against ROCK1 and against ROCK2 were > 10000 nM and 7 nM, respectively.

As to `CC(CC(=O)N1Cc2ccc(-c3nc(Nc4ccc5c(=O)[nH]ccc5c4)c4ccccc4n3)cc2C1)C(F)(F)F` (centres unmarked) [C50], the results for the IC50 against ROCK1 and on ROCK2 were > 10000 nM and 280 nM, respectively.

Turning to `CC(C)(C)CC(=O)N1Cc2ccc(-c3ncc(F)c(Nc4ccc5c(=O)[nH]ccc5c4)n3)cc2C1` [C51, 6-((2-(2-(3,3-dimethyl-butanoyl)isoindolin-5-yl)-5-fluoro-pyrimidin-4-yl)amino) isoquinolin-1(2H)-one], the figures for the IC50 at ROCK1 and on ROCK2 were > 10000 nM and 53 nM, respectively.

Take `CC(C)(C)CC(=O)N1CCc2sc(-c3ncc(F)c(Nc4ccc5c(c4)CCNC5=O)n3)cc2C1` [C53, 6-((2-(5-(3,3-dimethylbutanoyl)-4,5,6,7-tetrahydrothieno [3,2-c]pyridin-2-yl)-5-fluoropyrimidin-4-yl)amino)-3,4-dihydroisoquinolin-1(2H)-one]: the IC50 was > 10000 nM against ROCK1 and 135 nM on ROCK2.

On to `O=C(C1CC(F)(F)C1)N1Cc2ccc(-c3nccc(Nc4ccc5c(=O)[nH]ccc5c4)n3)cc2C1` [C54, 6-((2-(2-(3,3-difluoroocyclobutane-1-carbonyl)isoindolin-5-yl)pyrimidin-4-yl)amino)isoquinolin-1(2H)-one], for which the figures for the IC50 against ROCK1 and on ROCK2 were > 10000 nM and 17 nM, respectively.

With `CC(CC(=O)N1CCc2sc(-c3ncc(F)c(Nc4ccc5c(c4)CCNC5=O)n3)cc2C1)C(F)(F)F` (centres unmarked) [C55, 6-((5-fluoro-2-(5-(4,4,4-trifluoro-3-methylbutanoyl)-4,5,6,7-tetrahydrothieno[3,2-c]pyridin-2-yl)pyrimidin-4-yl)amino)-3,4-dihydroisoquinolin-1(2H)-one], the IC50 against ROCK1 was > 10000 nM; on ROCK2, 51 nM.

With `CC(C)(C)CC(=O)N1Cc2ccc(-c3nccc(Nc4ccc5c(=O)[nH]ccc5c4)n3)cc2C1` [C56, 6-((2-(2-(3,3-dimethyl-butanoyl)isoindolin-5-yl)pryimidin-4-yl)amino) isoquinolin-1(2H)-one], the IC50 against ROCK1 is > 10000 nM; against ROCK2, 24 nM.

For `CC(C)(C)CC(=O)N1CCc2sc(-c3nccc(Nc4ccc5c(=O)[nH]ccc5c4)n3)cc2C1` [C57, 6-((2-(5-(3,3-dimethylbutanoyl)-4,5,6,7-tetrahydrothieno[3,2-c]pyridin-2-yl)pyrimidin-4-yl)amino)isoquinolin-1(2H)-one], the IC50 at ROCK1 was > 10000 nM; against ROCK2 it was 16 nM.

With `CC(OC(=O)N1CCc2sc(-c3nccc(Nc4ccc5c(c4)CCNC5=O)n3)cc2C1)C(F)(F)F` (centres unmarked) [C59, 1,1,1-trifluoropropan-2-yl 2-(4-((1-oxo-1,2,3,4-tetrahydroisoquinolin-6-yl)amino)pyrimidin-2-yl)-6,7-dihydrothieno[3,2-c]pyridine-5(4H)-carboxylate], the IC50 on ROCK1 is > 10000 nM; against ROCK2 it was 33 nM.

Regarding `CC(OC(=O)N1CCc2sc(-c3ncc(F)c(Nc4ccc5c(=O)[nH]ncc5c4)n3)cc2C1)C(F)(F)F` (centres unmarked) [C60, 1,1,1-trifluoropropan-2-yl 2-(5-fluoro-4-((1-oxo-1,2-dihydrophthalazin-6-yl)amino)pyrimidin-2-yl)-6,7-dihydrothieno[3,2-c]pyridine-5(4H)-carboxylate], the IC50 was > 10000 nM against ROCK1 and 13 nM at ROCK2.

One may read the IC50 as the midpoint of a concentration-inhibition curve. High values mean lower potency, low ones higher potency.
